Assays:
LOX = LOX inhibition assay; format: biochemical
[1] = system: proliferative dermatological disorders; assay: Use in human subjects suffering from dermatological disorders; format: in vivo; conditions: humans
Text: Another embodiment of the present invention refers to method of use of a composition comprising of Acetyl-11-keto-beta-boswellic acid (BOSWELLIC ACID) and Bakuchiol for alleviation and management of skin rashes, itching, and boils resulting from skin proliferative disorders, specifically psoriasis, atopic dermatitis. For example, the method of use disclosed herein may be administered alongside steroidal therapy during the steroid dose tapering phase, followed by standalone administration of the combination provides complete remission of skin conditions, and is maintained that upon continuance of recommended dosage. In certain embodiments the skin disorder may be resulting from irritants, allergens, trigger, or autoimmune reasons, and the combination defined herein is effective in all of the above. The present invention includes the formulation of a Bakuchiol and BOSWELLIC ACID combination in an oral dosage form or, lotion, cream, ointment which can be applied topically.

| IC50 (LOX) [µM] | Compound | Remission of proliferative dermatological conditions [1] |
| --- | --- | --- |
| 3.1 | C=C[C@@](C)(/C=C/c1ccc(O)cc1)CCC=C(C)C [Bakuchiol] |  |
|  | 3-o-Acetyl-11-keto-beta-boswellic acid | substantial remission |
